Assay results: ChEMBL document CHEMBL1129221, “Inhibition of nitric oxide synthase by benzoxazolones” (Bioorg Med Chem Lett, 1997)

Key:
Nitric oxide synthase 3 = target: T1, Nitric oxide synthase 3 (Homo sapiens, UniProt P29474); test: Inhibitory activity against Endothelial nitric oxide synthase
T1 sequence (P29474 whole entry): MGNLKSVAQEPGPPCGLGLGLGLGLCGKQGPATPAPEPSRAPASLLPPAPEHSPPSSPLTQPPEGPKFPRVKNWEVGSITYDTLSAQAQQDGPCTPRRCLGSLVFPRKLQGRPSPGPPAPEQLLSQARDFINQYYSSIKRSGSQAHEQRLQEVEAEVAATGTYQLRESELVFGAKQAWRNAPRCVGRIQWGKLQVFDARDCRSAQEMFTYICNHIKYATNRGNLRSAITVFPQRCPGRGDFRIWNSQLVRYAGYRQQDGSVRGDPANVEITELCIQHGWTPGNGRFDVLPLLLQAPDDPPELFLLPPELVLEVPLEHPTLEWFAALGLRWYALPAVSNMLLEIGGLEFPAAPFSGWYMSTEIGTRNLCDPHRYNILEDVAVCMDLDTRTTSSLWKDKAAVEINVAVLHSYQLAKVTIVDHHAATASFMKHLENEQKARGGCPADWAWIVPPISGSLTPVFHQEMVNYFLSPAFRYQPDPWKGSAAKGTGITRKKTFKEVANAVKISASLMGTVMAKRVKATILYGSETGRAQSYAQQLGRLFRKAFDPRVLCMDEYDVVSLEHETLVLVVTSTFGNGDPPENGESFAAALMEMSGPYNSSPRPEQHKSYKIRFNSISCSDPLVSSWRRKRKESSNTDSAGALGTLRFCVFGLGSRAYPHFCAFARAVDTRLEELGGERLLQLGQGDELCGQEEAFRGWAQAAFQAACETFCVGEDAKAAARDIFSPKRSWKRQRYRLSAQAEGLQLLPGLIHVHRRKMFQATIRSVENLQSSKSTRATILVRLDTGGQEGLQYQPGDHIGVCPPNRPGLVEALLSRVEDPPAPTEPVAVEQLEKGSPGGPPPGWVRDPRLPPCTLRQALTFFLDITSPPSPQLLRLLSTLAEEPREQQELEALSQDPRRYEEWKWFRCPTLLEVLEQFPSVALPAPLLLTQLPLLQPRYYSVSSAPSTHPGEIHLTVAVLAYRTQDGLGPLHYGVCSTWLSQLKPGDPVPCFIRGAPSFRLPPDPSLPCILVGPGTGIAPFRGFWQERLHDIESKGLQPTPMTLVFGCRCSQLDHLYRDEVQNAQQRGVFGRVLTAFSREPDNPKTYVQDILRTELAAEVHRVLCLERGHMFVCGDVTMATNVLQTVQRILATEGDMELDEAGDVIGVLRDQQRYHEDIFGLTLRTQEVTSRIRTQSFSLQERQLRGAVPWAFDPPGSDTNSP

Nitric oxide synthase 1 [1] = target: T2, Nitric oxide synthase 1 (Homo sapiens, UniProt P29475); test: Compound was evaluated for in vitro inhibitory activity against Neuronal nitric oxide synthase; details: concentration not given here
[2] = target: T3, Nitric oxide synthase, inducible (Homo sapiens, UniProt P35228); test: In vitro inhibitory activity against Inducible nitric oxide synthase at 50 uM concentration
Nitric oxide synthase 1 [3] = target: T2, Nitric oxide synthase 1; test: Inhibitory activity against Neuronal nitric oxide synthase
[4] = target: T3, Nitric oxide synthase, inducible; test: Inhibitory activity against Inducible nitric oxide synthase

T2 sequence (P29475 whole entry): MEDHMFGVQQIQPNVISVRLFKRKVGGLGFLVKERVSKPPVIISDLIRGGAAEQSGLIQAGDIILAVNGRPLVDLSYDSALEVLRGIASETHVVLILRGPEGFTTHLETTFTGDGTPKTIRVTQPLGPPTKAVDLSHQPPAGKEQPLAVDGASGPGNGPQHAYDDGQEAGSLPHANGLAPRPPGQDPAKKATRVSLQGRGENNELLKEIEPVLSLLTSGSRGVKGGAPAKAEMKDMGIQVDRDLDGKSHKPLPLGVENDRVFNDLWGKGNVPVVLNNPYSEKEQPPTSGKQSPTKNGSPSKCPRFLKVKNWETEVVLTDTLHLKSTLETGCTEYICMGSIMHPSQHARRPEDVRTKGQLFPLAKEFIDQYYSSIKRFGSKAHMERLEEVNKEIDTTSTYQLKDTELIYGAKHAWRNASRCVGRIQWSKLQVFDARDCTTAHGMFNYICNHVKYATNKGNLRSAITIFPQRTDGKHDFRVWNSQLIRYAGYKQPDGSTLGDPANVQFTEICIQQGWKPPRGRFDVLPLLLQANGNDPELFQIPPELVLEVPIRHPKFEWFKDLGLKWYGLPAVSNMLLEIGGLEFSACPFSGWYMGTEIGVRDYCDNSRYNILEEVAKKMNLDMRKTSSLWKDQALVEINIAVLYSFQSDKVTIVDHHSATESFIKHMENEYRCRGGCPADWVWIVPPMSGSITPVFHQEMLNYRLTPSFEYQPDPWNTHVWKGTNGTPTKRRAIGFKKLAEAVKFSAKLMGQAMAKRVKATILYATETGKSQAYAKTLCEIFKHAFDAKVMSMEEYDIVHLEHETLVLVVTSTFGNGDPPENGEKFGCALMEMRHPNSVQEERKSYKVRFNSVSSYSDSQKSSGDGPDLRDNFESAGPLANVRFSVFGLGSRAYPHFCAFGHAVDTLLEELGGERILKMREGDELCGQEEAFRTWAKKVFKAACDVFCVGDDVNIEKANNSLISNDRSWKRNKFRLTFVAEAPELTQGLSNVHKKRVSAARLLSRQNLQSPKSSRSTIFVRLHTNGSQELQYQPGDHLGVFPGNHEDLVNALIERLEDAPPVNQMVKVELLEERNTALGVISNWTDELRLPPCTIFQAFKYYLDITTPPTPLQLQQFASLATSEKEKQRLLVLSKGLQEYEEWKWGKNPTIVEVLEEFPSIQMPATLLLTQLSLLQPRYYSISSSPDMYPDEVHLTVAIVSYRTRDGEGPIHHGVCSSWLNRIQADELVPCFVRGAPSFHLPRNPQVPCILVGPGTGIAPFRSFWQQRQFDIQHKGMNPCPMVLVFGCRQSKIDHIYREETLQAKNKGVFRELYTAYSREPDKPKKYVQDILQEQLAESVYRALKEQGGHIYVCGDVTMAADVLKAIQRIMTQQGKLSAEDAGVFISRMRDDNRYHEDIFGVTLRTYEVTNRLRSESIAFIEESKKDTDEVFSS
T3 sequence (P35228 whole entry): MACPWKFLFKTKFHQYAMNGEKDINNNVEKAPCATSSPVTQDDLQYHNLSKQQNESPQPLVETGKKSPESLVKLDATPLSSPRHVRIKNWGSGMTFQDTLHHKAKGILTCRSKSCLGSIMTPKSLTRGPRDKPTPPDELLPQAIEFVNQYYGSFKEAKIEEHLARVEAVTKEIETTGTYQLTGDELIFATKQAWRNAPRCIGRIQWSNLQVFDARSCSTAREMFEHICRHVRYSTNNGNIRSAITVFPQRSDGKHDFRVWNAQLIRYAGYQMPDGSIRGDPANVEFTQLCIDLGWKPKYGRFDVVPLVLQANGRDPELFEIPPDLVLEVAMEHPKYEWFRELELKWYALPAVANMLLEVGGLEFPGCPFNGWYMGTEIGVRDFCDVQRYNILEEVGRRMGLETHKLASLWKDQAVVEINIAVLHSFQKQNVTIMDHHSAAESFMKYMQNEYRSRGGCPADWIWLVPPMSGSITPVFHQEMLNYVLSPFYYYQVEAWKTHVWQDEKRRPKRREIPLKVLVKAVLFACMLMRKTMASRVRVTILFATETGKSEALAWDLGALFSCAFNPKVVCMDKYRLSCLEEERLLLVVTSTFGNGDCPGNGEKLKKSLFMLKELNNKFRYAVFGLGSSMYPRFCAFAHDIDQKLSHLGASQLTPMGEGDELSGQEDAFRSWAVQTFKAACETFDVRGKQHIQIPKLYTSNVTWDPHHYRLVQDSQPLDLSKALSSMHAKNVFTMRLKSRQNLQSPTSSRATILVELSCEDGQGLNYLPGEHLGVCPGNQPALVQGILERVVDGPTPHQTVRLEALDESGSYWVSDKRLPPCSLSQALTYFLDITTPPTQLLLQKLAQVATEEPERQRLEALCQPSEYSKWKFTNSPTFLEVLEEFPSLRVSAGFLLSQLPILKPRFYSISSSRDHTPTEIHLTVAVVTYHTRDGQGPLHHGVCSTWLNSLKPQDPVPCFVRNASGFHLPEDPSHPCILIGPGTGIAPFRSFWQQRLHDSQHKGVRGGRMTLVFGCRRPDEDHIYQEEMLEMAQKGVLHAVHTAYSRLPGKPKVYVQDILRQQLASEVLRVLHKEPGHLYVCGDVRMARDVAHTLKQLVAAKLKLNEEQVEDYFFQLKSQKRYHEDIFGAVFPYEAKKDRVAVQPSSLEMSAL

| Compound | IC50 (Nitric oxide synthase 3) | inhibition (Nitric oxide synthase 1 [1]) | inhibition [2] | IC50 (Nitric oxide synthase 1 [3]) | IC50 [4] |
| --- | --- | --- | --- | --- | --- |
| CN(Cn1c(=O)oc2ccc(Cl)cc21)c1ccccn1 | 8.4 µM | 71% | 74% |  |  |
| CN(CCc1ccccc1)Cn1c(=O)oc2ccc(Cl)cc21 | 15.9 µM |  |  | 68 µM | 15.9 µM |
| O=c1oc2ccc(Cl)cc2n1CN1CCSCC1 | 20.3 µM |  |  | 4.4 µM | 3.5 µM |
| Cc1ccc2oc(O)nc2c1 | 10.6 µM |  |  | 50 µM | 9.9 µM |
| Cc1ccc2[nH]c(=O)oc2c1 | > 50 µM |  |  | 13.1 µM | > 50 µM |
| Oc1nc2ncccc2o1 |  |  |  |  | > 50 µM |
| O=c1oc2ccc(Cl)cc2n1CN1CCCCC1 | 18.9 µM |  |  | 4.6 µM | 1.5 µM |
| Sc1nc2cc(Cl)ccc2o1 | > 50 µM |  |  | > 50 µM | > 50 µM |
| O=c1oc2ccc(Cl)cc2n1CN1CCOCC1 | 14.7 µM |  |  | 5.6 µM | 0.8 µM |
| O=c1oc2ccc(Cl)cc2n1CCN1CCOCC1 |  |  | 0% |  |  |
| N#Cc1ccc2oc(O)nc2c1 | 50 µM |  |  | 50 µM | 14.5 µM |
| Cc1ccc2nc(O)oc2n1 | > 50 µM |  |  | 50 µM | 7.4 µM |
| CN(Cc1ccccc1)Cn1c(=O)oc2ccc(Cl)cc21 | 13.6 µM |  |  | 11.5 µM | 13.4 µM |
| O=c1[nH]c2cc(F)ccc2o1 | > 50 µM |  |  | > 50 µM | > 50 µM |
| CN1CCN(Cn2c(=O)oc3ccc(Cl)cc32)CC1 | 15.5 µM |  |  | 4.4 µM | 1.2 µM |
| Cc1cccc2oc(=O)[nH]c12 | > 50 µM |  |  | > 50 µM | > 50 µM |
